Assay results reported in ChEMBL document CHEMBL1201862, “PubChem BioAssay data set” (2004).
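All cell lines were grown in 96-well plates and treated with compound for 48 hours. Abbreviation: GI50, concentration required for 50% inhibition of growth.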 Activity calls are given as the source filed them. Cut-off read from the data, not from the text of the source: active = GI50 up to about 1.1 µM and inactive = higher.

Assays:
Test in all cases: NCI anticancer screen, dose series, 48 h
MDA-MB-231 = system: MDA-MB-231
OVCAR-5 = system: OVCAR-5
U-251 = system: U-251
SK-MEL-28 = system: SK-MEL-28
CAKI-1 = system: CAKI-1
NCI-H460 = system: NCI-H460
KM12 = system: KM12
MDA-N = system: MDA-N
DU-145 = system: DU-145
CCRF-CEM = system: CCRF-CEM
IGROV-1 = system: IGROV-1
SK-OV-3 = system: SK-OV-3
K562 = system: K562
786-0 = system: 786-0
SW-620 = system: SW-620
UACC-62 = system: UACC-62
SR = system: SR
SK-MEL-5 = system: SK-MEL-5
MOLT-4 = system: MOLT-4
LOX IMVI = system: LOX IMVI
COLO 205 = system: COLO 205
HCT-116 = system: HCT-116
HOP-62 = system: HOP-62
SF-268 = system: SF-268
HT-29 = system: HT-29
T47D = system: T47D
UACC-257 = system: UACC-257
UO-31 = system: UO-31
NCI-H522 = system: NCI-H522
OVCAR-8 = system: OVCAR-8
RPMI-8226 = system: RPMI-8226
TK-10 = system: TK-10
HOP-92 = system: HOP-92
MCF7 = system: MCF7
RXF 393 = system: RXF 393
PC-3 = system: PC-3
HCC 2998 = system: HCC 2998
OVCAR-3 = system: OVCAR-3
HCT-15 = system: HCT-15
A498 = system: A498
NCI/ADR-RES = system: NCI/ADR-RES
HL-60 = system: HL-60
Malme-3M = system: Malme-3M
SF-539 = system: SF-539
OVCAR-4 = system: OVCAR-4
NCI-H23 = system: NCI-H23
SN12C = system: SN12C
SNB-75 = system: SNB-75
A549 = system: A549
M14 = system: M14
MDA-MB-435 = system: MDA-MB-435
EKVX = system: EKVX
NCI-H226 = system: NCI-H226
ACHN = system: ACHN
SF-295 = system: SF-295
SK-MEL-2 = system: SK-MEL-2
SNB-19 = system: SNB-19
Hs-578T = system: Hs-578T

Measured: GI50

COc1ccccc1NC(=S)NN=C(C)c1cccc(C(C)=NNC(=S)Nc2ccccc2OC)n1
active: TK-10 0.18 µM
inactive: MDA-MB-231 5.16 µM | OVCAR-5 > 100 µM | U-251 34.3 µM | SK-MEL-28 79.4 µM | CAKI-1 82.2 µM | NCI-H460 24 µM | KM12 26.1 µM | MDA-N 70.5 µM | DU-145 24 µM | CCRF-CEM 4.78 µM | IGROV-1 25.5 µM | SK-OV-3 99.8 µM | K562 20 µM | 786-0 6.64 µM | SW-620 7.73 µM | UACC-62 20.5 µM | SR 1.66 µM | SK-MEL-5 3.94 µM | MOLT-4 3.54 µM | LOX IMVI 31.8 µM | COLO 205 19.6 µM | HCT-116 2.95 µM | HOP-62 42.8 µM | SF-268 15.9 µM | HT-29 18 µM | T47D > 100 µM | UACC-257 25.8 µM | UO-31 20.6 µM | NCI-H522 45.6 µM | OVCAR-8 12.9 µM | RPMI-8226 24.6 µM | HOP-92 21.7 µM | MCF7 29.1 µM | RXF 393 12.9 µM | PC-3 27 µM | HCC 2998 > 100 µM | OVCAR-3 7.87 µM | A498 29.1 µM | NCI/ADR-RES 10.4 µM | HL-60 26.3 µM | Malme-3M 3.49 µM | SF-539 19.9 µM | OVCAR-4 24.4 µM | NCI-H23 33.9 µM | SN12C 30 µM | SNB-75 94.6 µM | A549 29.2 µM | M14 5.06 µM | MDA-MB-435 23 µM | EKVX 24 µM | NCI-H226 28.4 µM | ACHN 14.7 µM | SF-295 26.8 µM | SK-MEL-2 44.9 µM | SNB-19 77.4 µM
28.5 µM: HCT-15

C[N+]1(C)CCCC(C#N)(c2ccccc2)CC1 (stereo unspecified)
> 100 µM: HCT-15
inactive: OVCAR-5 > 100 µM | U-251 > 100 µM | SK-MEL-28 > 100 µM | CAKI-1 > 100 µM | NCI-H460 > 100 µM | KM12 > 100 µM | MDA-N > 100 µM | DU-145 > 100 µM | CCRF-CEM > 100 µM | IGROV-1 > 100 µM | SK-OV-3 > 100 µM | K562 > 100 µM | 786-0 > 100 µM | SW-620 > 100 µM | SR > 100 µM | SK-MEL-5 > 100 µM | MOLT-4 > 100 µM | COLO 205 > 100 µM | HCT-116 > 100 µM | HOP-62 > 100 µM | SF-268 > 100 µM | HT-29 > 100 µM | T47D > 100 µM | UACC-257 > 100 µM | UO-31 > 100 µM | OVCAR-8 > 100 µM | RPMI-8226 > 100 µM | TK-10 > 100 µM | HOP-92 > 100 µM | MCF7 > 100 µM | RXF 393 > 100 µM | PC-3 > 100 µM | HCC 2998 > 100 µM | A498 > 100 µM | NCI/ADR-RES > 100 µM | HL-60 > 100 µM | Malme-3M > 100 µM | OVCAR-4 > 100 µM | NCI-H23 > 100 µM | SNB-75 > 100 µM | A549 > 100 µM | M14 > 100 µM | Hs-578T > 100 µM | EKVX > 100 µM | ACHN > 100 µM | SF-295 > 100 µM | SNB-19 > 100 µM

CC(C)CCNC(=O)c1ccc(CNC(=O)/C=C/c2ccc3ccccc3c2)cc1
> 100 µM: HCT-15
inactive: MDA-MB-231 > 100 µM | OVCAR-5 > 100 µM | U-251 36 µM | SK-MEL-28 > 100 µM | CAKI-1 > 100 µM | NCI-H460 > 100 µM | KM12 > 100 µM | MDA-N > 100 µM | DU-145 > 100 µM | CCRF-CEM > 10 µM | SK-OV-3 > 100 µM | K562 > 100 µM | 786-0 > 100 µM | SW-620 > 100 µM | UACC-62 > 100 µM | SR > 100 µM | SK-MEL-5 > 100 µM | MOLT-4 > 100 µM | LOX IMVI > 100 µM | COLO 205 > 100 µM | HCT-116 > 100 µM | HOP-62 > 100 µM | SF-268 > 100 µM | T47D > 100 µM | UACC-257 > 100 µM | UO-31 44.1 µM | OVCAR-8 > 100 µM | RPMI-8226 > 100 µM | HOP-92 > 100 µM | MCF7 > 100 µM | RXF 393 > 100 µM | PC-3 > 100 µM | HCC 2998 > 100 µM | OVCAR-3 > 100 µM | A498 > 100 µM | NCI/ADR-RES > 100 µM | HL-60 > 100 µM | OVCAR-4 59.3 µM | NCI-H23 > 100 µM | SN12C > 100 µM | SNB-75 > 100 µM | A549 > 100 µM | M14 46.3 µM | MDA-MB-435 > 100 µM | EKVX > 100 µM | NCI-H226 > 100 µM | ACHN > 100 µM | SF-295 > 100 µM | SK-MEL-2 > 100 µM | SNB-19 > 100 µM
